The source of these data is patent US11369616B2, “Drug combination and its use in therapy” (Proximagen, LLC, priority 2016, dated 2022).

Holding throughout (type): in vivo, mice
The test system of test [1] is B16F10 small. Description: Syngeneic subcutaneous tumour growth inhibition, B16F10 small (Study 2). The following applies: Melanoma, SDF-1 4 FPKM, 641 50 mg/kg p.o. 5 days out of 7, anti-PD1 10 mg/kg i.p. twice weekly for 3 weeks, vs vehicle group. As for the experimental part: (§1) Four syngeneic cell lines (EMT-6, H22, CT26, B16F10small) were cultured and when in exponential growth were inoculated in mice subcutaneously with tumour cells in 0.1 mL of PBS for tumour development. After the mean tumour size reached approximately 80-120 mm^3 the mice were treated with anti-PD1 antibody (clone RMP1-14) (10 mg/kg i.p. twice weekly for 3 weeks) or 6-{4-[1-(Propan-2-yl)piperidin-4-yl]-1,4-diazepan-1-yl}-N-(pyridin-4-yl)pyridine-2-carboxamide (50 mg/kg p.o. 5 days out of 7), or a combination of the two treatments. Tumour volumes were measured twice weekly at least in two dimensions using a caliper, and the volume expressed in mm^3 using the formula: V=0.5 a×b^2 where a and b are the long and short diameters of the tumour, respectively. Tumour growth was measured and inhibition of tumour growth reported in comparison to a vehicle treated group. All groups contained 8 mice. If the tumours in a group reached an average volume of 2000 mm^3, the experiment was terminated.
(§2) SDF-1 levels were measured by RNA sequencing and are expressed as fragments read per million mapped reads per kilobase of transcript (FPKM). FPKM is normalised to all the fragments read and to the length of the genes, and so is in effect a ratio of the number of SDF-1 reads to all the other genes read multiplied by one million.

Test [2] concerns CT26. Description: Syngeneic subcutaneous tumour growth inhibition, CT26 (Study 2). Particulars: Colorectal, CT26, SDF-1 17 FPKM; 641 50 mg/kg p.o. 5 days out of 7; anti-PD1 10 mg/kg i.p. twice weekly for 3 weeks; vs vehicle group. As for the experimental part:
as §1, §2

Test [3] relates to H22. Description: Syngeneic subcutaneous tumour growth inhibition, H22 (Study 2). The following applies: Liver, H22, SDF-1 26 FPKM; 641 50 mg/kg p.o. 5 days out of 7; anti-PD1 10 mg/kg i.p. twice weekly for 3 weeks; vs vehicle group. As for the experimental part:
as §1, §2

Test [4] deals with EMT6. Description: Syngeneic subcutaneous tumour growth inhibition, EMT6 (Study 2). The following applies: Breast, EMT6, SDF-1 42 FPKM; 641 50 mg/kg p.o. 5 days out of 7; anti-PD1 10 mg/kg i.p. twice weekly for 3 weeks; vs vehicle group. As for the experimental part:
as §1, §2

In the case of `CC(C)N1CCC(N2CCCN(c3cccc(C(=O)Nc4ccncc4)n3)CC2)CC1` [compound 641, 6-{4-[1-(Propan-2-yl)piperidin-4-yl]-1,4-diazepan-1-yl}-N-(pyridin-4-yl)pyridine-2-carboxamide], the “% inhibition of tumour growth relative to control” value in test [1] came out at 0%; in test [2], 32.1%; in test [3], 20.1%; in test [4], 79.8%.
